Here are results for 2 substances from doi:10.1101/2022.02.10.479976v1 (bioRxiv, 2022).

For series [1] the following is noted: cited from earlier work.
Series [2] is described as follows: Distribution of calcitonin in sub-compartments of sheep blood in vitro. Type of series: in vitro ADME. Particulars: calcitonin treated group, 2.5 ng/ml; sum of all five compartments = 100 percent.
The conditions of series [3]: cited from earlier work. The source holds these as a separate data set.
The conditions of series [4]: cited from earlier work. The source holds these as a separate data set.

Values joined by “and” are separate entries in the source; they are usually repeats but may differ in a detail not shown here. Equal values may be shown once.

Turning to salmon Calcitonin, the elimination half-life in series [1] was 54 to 76 min.

Turning to Calcitonin, in series [2], the “distribution of calcitonin associated with RBC” value is “less than 8%”; the “distribution of calcitonin in plasma” value is given as around 30%; the “distribution of calcitonin on WBC-surface” value is ~30% and ~40%. In series [1], the half-life is 40 to 60 min. Also, the bioavailability entry in series [1] (parenteral delivery, various formulations) is “up to 70%”. For the same substance, in series [3], the “sustained pharmacodynamic effects (duration)” value is 18 to 22 h. The plasma protein binding in series [4] is recorded as around 40%.

A word on the half-life: it is how long it takes for the measured level to halve.
